In US20250382556A1, “MODULATION OF THE BRANCHED-CHAIN METABOLITE CONTENT OF FRUITS AND VEGETABLES” (BOARD OF TRUSTEES OF MICHIGAN STATE UNIVERSITY, priority 2024, published 2025):

Test system: ripe ‘Red Delicious’ apple fruit
Assay: Precursor (isoleucine, α-ketoacid) content of ripe apple peel via derivatization and GCMS, time course
Type: in vivo, Malus x domestica Borkh.
Settings: 1 mM rimsulfuron
Description: ‘Red Delicious’ apple fruit held in refrigerated air for 5 months (see above) plus 1 day at 22° C. and at an advanced ripeness stage (‘ripe’) were treated with rimsulfuron (1 mM) with 0.2% Tween 20 on day 0 of the study and for the next three consecutive days as above described. The fruit were evaluated daily for volatile emissions (see below) for eight days. On days 0, 2, 4, and 7, representative treated and untreated fruit were selected for tissue collection for metabolite analysis (see below). On day 7, samples of fruit peel were fed, as described above, with water or 20 mM isoleucine or α-keto-β-methylvalerate.
To simultaneously quantify branched-chain α-ketoacids and amino acids, 100 mg of ground frozen tissue was extracted in 2 mL of 1:1 acetonitrile: water containing 13 μM U-^13C, ^15N labeled amino acids (MilliporeSigma) as internal standard for 15 min in a 65° C. water bath. […]
One microliter of derivatized sample was analyzed with a GC (Agilent 6890) coupled to a time-of-flight MS (Pegasus II, LECO). […]
Compounds were identified by retention time and spectra of derivatized authenticated standards. Quantification was performed by comparison of the ratios of peak areas of metabolites to labeled internal standards. […] Calibration standards consisted of equimolar mixtures of the analyzed compounds that mimicked 15-0.15 nmoles of analyte in the final derivatized sample. […]

CCS(=O)(=O)c1cccnc1S(=O)(=O)NC(=O)Nc1nc(OC)cc(OC)n1 [rimsulfuron, N-((4,6-dimethoxypyrimidin-2-yl)aminocarbonyl)-3-(ethylsulfonyl)-2-pyridinesulfonamide]
isoleucine content, plateau, of control levels: 29.1%
α-keto-β-methylvalerate content, plateau, of control levels: 51.1%
